PMC7177833, “2-Aminopyridine Analogs Inhibit Both Enzymes of the Glyoxylate Shunt in Pseudomonas aeruginosa” (International Journal of Molecular Sciences, 2020)

Legend:
[1] = target: T1, ICLPa (isocitrate lyase from P. aeruginosa) (Pseudomonas aeruginosa, UniProt Q9I0K4); test: Inhibition of purified ICLPa enzymatic activity; format: biochemical; conditions: for inhibition at 75 µM: 75 µM compound, read-out: Enzyme Inhibition (%) at 75 µM ICLPa; for IC50: purified enzyme, 170 nM ICL
T1 construct: made in house
T1 sequence (Q9I0K4 1-531): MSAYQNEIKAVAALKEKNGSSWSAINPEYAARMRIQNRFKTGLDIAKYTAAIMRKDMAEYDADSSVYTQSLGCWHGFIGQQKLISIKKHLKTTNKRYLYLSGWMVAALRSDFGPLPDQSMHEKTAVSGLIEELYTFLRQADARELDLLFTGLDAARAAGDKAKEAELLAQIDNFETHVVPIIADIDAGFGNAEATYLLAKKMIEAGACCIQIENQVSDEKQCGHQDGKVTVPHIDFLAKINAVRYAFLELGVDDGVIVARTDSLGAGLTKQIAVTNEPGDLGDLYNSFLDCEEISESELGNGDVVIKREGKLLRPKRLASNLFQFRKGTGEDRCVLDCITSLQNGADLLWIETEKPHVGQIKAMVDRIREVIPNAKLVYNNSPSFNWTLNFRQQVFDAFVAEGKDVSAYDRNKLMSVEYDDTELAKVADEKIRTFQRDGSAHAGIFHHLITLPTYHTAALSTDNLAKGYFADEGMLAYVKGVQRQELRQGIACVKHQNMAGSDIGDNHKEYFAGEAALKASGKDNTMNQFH
Experimental: The enzymatic activity of purified ICLPa and MSPa was assayed essentially as previously described. Compounds were added to the reaction mixtures (minus substrates) and incubated for 5 min at 37 °C. The enzyme concentration in the reaction mixtures was 170 nM for ICL and 25 nM for MS (based on the concentration of the monomer in each case). […] The reactions were initiated by the addition of pH-adjusted substrates, and the initial rates were recorded as A324 nm (for ICLPa) and A412 nm (for MSPa) using a Biospectrometer (Eppendorf, Stevenage, UK). Substrate turnover was calculated from the molar extinction coefficient of the assay products: Glyoxylate-phenylhydrazone (16,800/M/cm) for ICLPa and 2-nitro-5-thiobenzoic acid (14,150/M/cm) for MSPa.
All data fitting was performed with GraphPad Prism version 7.04 (GraphPad Software, Inc., La Jolla, CA, USA). The solid lines are the result of fitting the data to the equations denoted in relevant experimental sections. IC50 values were determined by a nonlinear fit using the equation for sigmoidal dose-response with variable slope. In all graphs, unless otherwise stated, the data points are the mean of experimental triplicates, and all error bars correspond to ± standard deviation.

CYP1A2 = target: T2, CYP1A2 (Homo sapiens, UniProt P05177); test: CYP450 inhibition in HLM, phenacetin probe
T2 sequence (P05177 1-516): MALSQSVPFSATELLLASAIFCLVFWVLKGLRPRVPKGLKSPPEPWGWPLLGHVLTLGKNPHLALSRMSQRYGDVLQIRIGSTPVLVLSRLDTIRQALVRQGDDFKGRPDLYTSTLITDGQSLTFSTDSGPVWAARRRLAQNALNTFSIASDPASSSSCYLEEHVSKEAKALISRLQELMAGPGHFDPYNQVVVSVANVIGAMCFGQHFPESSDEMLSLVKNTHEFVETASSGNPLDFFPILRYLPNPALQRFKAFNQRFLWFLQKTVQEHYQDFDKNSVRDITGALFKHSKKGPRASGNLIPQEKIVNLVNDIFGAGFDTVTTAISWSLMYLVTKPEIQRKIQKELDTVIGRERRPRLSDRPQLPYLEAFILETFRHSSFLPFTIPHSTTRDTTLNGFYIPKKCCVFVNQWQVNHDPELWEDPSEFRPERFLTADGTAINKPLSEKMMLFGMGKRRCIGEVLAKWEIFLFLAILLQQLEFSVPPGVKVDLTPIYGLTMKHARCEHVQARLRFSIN
Experimental: (§1) The CYP450 inhibition was determined by measuring the reaction products of known CYP450 substrates (probes). Probe solutions were prepared by diluting stock solutions with buffer (100 mM Tris-HCl, pH 7.5, and 0.5 mM EDTA) to the final indicated concentrations (Figure 5), and adding 180 µL of pooled human liver microsomes (20 mg/mL) (BioIVT, West Sussex, UK). These probe solutions were dispensed (195 µL) into clear 96-well plates with low evaporation lids (Corning, Turin, Italy) and the plates were prewarmed to 37 °C in a thermomixer (Hamilton, Agrate Brianza, Italy). Next, 5 µL of the test compound or appropriate positive control (Table S4) were added to the wells and the plates were incubated for a further 5 min. Following this, the reactions were started by adding NADPH regenerating solution (50 µL, see previous Section 4.7) to each well. CYP450 mixtures containing phenacetin, rosiglitazone, mephenytoin, atorvastatin, and nifedipine probes were incubated for 10 min at 37 °C, whereas those with midazolam and diclofenac were incubated for 5 min at 37 °C. Aliquots (100 µL) from each reaction mixture were quenched in 200 µL acetonitrile, and the mixtures were sedimented at 3000 ×g for 10 min at 4 °C. The supernatants were diluted in water containing 5 ng/mL Rolipram as an internal standard for LC-MS/MS analysis. All incubations were carried out in triplicate.
(§2) Probe products were analyzed on an API4000 Qtrap mass spectrometer (Applied Biosystems/MDS SCIEX, Monza, Italy) coupled with an Acquity UPLC system (Waters, Milan, Italy) and a CTC-PAL auto-injector (CTC Analytics AG, Zwingen, Switzerland). […] The column temperature was maintained at 60 °C. The injected sample volume was 10 µL, and analytes were eluted at a flow rate of 800 µL/min in a gradient of eluent A (water with 0.1% formic acid) and eluent B (acetonitrile with 0.1% formic acid). […] The analytes were quantified in multiple reaction-monitoring mode. Data were processed, and the percentage control activity was calculated based on a comparison between the ratio of the sample peak area and the peak area.

CYP450 isozymes = test: CYP450 inhibition in HLM, whole isozyme panel; format: in vitro ADME, human; conditions: over the concentration range tested
Experimental: as §1, §2

Compound	inhibition at 75 µM [1]	IC50 [1]	IC50 (CYP1A2)	inhibitory drug–drug interactions (CYP450 inhibition) (CYP450 isozymes)
CC(C)(C)OC(=O)/N=C(\NC(=O)OC(C)(C)C)Nc1cc(C#N)ccn1 [SB023]	34.7%	92.5 µM	> 100 µM	no major inhibitory drug–drug interactions
Nc1cc(Cl)ccn1 [Compound 2-AP, 2-amino-4-chloropyridine, reference compound]	21%	> 75 µM	> 100 µM	no major inhibitory drug–drug interactions
CC(C)(C)OC(=O)/N=C(\NC(=O)OC(C)(C)C)Nc1cc(Cl)ccn1 [SB002]	100%	13.3 µM	> 100 µM	no major inhibitory drug–drug interactions
